pKd: −log10 of the molar value.
Biological target: recombinant human SUV39H1 (rhSUV39H1) (Homo sapiens, UniProt O43463)
Assay: biochemical

Chain of recombinant human SUV39H1 (rhSUV39H1) (O43463 whole entry): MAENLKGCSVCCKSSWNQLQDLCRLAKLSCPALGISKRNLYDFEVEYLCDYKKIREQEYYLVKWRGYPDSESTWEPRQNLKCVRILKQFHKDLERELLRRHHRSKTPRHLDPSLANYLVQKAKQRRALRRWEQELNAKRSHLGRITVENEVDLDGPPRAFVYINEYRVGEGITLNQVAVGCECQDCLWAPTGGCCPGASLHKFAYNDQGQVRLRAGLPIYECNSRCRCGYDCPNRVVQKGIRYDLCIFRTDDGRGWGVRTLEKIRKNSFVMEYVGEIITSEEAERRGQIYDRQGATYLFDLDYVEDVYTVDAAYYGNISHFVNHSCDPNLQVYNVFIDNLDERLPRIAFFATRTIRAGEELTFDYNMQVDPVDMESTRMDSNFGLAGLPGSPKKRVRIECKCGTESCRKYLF

pKd: 4.67
Structure (SMILES): CC(C)(O)[C@@H]1CC[C@](C)([C@H]2[C@@H](O)C[C@@]3(C)[C@@H]4C[C@H](O[C@@H]5O[C@H](CO)[C@@H](O)[C@H](O)[C@H]5O)[C@H]5C(C)(C)[C@@H](O[C@@H]6OC[C@@H](O)[C@H](O)[C@H]6O)CC[C@@]56C[C@@]46CC[C@]23C)O1 [Astragaloside IV]

— PMC10563463 (Cell Transplantation, 2023)
